Series [1] has as its system perfused heart. The series is described as follows: low-pressure or low-flow ischaemia model, perfused heart (Langendorff). An excerpt: In this example, the low-pressure or low-flow ischaemia model was used, which is a model recognised as valid for cardiac ischaemia (Bolukoglu, H. et al. Am. J. Physiol. 1996: 270; H817-26).
The treatment schedule is illustrated in FIG. 1., in which the letters A-F denote the heart effluent sampling times for the measurement of metabolites. The hearts are removed from the animals and mounted on a Langerdorff appliance. The perfusion medium replacing the blood was a Krebs-Heinsleit standard bicarbonate buffer containing glucose 12 mM as energy source for cardiac metabolism.
After 30 minute perfusion at a pressure of 100 cm of water, ischaemia was induced by reducing the perfusion pressure of the heart to 25 cm of water, thus reducing coronary flow from approximately 2 ml/min to approximately 0.3 ml/min. Reduction of the perfusion pressure gives rise to ischaemia, since the heart will pump the fluid in the low-perfusion area rather than via the coronary bloodstream, supplying the flow to the heart.
This control model was compared with hearts perfused with L-carnitine 10 mM or L-carnitine fumarate 10 mM.
Cardiac function was tested in three different ways.
In the first, the NRM ^31P signal was monitored in real time.
This signal provides the best indication of the energy status of the heart.
In the second, the haemodynamics of the heart was measured by means of a pressure transducer mounted to measure the perfusion pressure. The haemodynamic measurements include heart rate, relative dP/dt (measurement of the contraction force of the heart) and the cardiac contraction amplitude. Coronary flow was also measured as an indicator of the heart's ability to provide oxygen and energy for its own metabolism.
In the third type of test, the metabolites and the enzyme LDH released by the heart were analysed in the effluent. The release of LDH indicates damage to cardiac tissue. The release of metabolites by the heart was tested by means of mass spectrometry coupled with gas chromatography.
The procedures of example 1 were substantially repeated, with the addition of a treatment with carnitine alone as a further control.

Series [2] concerns patients. The following applies: oral supplementation, cited from earlier work.
For series [3] the following is noted: cited from earlier work.
The subject of series [4] is hemodialysis patients. The following applies: i.v. 20 mg/kg for six months, then 10 mg/kg, after each dialysis session; cited from earlier work.
Series [5] relates to maintenance hemodialysis patients. The note with it: i.v. 20 mg/kg after each dialysis session; cited from earlier work.
[6] abbreviates: 10 mM, post-ischemic, vs control hearts.

“Also recorded” adds a separate entry of the source.

Take `C[N+](C)(C)C[C@H](O)CC(=O)[O-].O=C(O)/C=C/C(=O)O` [carnitine fumarate, L-carnitine fumarate]: the “release of LDH in heart effluent” value in series [1] (10 mM in perfusion medium, low-flow ischaemia, vs control hearts, fumarate) was “reduced release of LDH; also recorded: affords protection against ischemic damage”. Further, the “reserves of high-energy phosphate (creatine phosphate, 31P NMR)” value in series [1] (10 mM, after 45 minutes of ischaemia, vs control hearts) is listed as “greater in treated hearts”. Besides, the “malate released by the heart (effluent)” value in series [1] (10 mM, low-flow ischaemia, GC-MS of effluent) was “more malate”. The “lactate released by the heart (effluent)” value in series [1] (10 mM, low-flow ischaemia, GC-MS of effluent, fumarate) is on record as “less lactate; also recorded: lactate reduction”. Further, in series [1] (setting [6]), the coronary flow result is recorded as “greater” and the “post-ischemic cardiac contraction amplitude” value is “greater”. The “succinate released by the heart (effluent)” value in series [1] (Example 2, FIG. 3B, compared to lactate) is recorded as “low amount of succinate as compared to lactate”.

Consider `C[N+](C)(C)C[C@H](O)CC(=O)[O-]` [carnitine, L-carnitine], for which the “ATP peaks (alpha, beta, gamma phosphate, 31P NMR)” value in series [1] (Example 2, after 40 minutes of ischaemia, FIG. 2) is on record as “lacking”. The “quality of life, early stage of treatment” value in series [2] (early stage of treatment) was “effective in improving the quality of life”. Also, the “quality of life, long term treatment” value in series [2] (long term treatment (six months)) is on record as “not sustained”. In series [3], the “bioavailability through the oral route” value is given as “subject to saturation mechanism”. In addition, the “abnormal serum fatty acid profile” value in series [4] was “partial correction”. In series [5], the dialytic symptoms entry was “decrease”; the “effect on serum lipid profile” value is reported as “does not seem to have a great lipid-lowering potential”; the “exercise capability, sense of well being” value is recorded as “improvement”.

The values are drawn from patent publication US6696493B2, “Treating chronic uremic patients undergoing periodic dialysis” (Sigma-Tau Industrie Farmaceutiche Riunite S.p.A., priority 2000, dated 2004).
